Assay [1] addresses T1, purified and unphosphorylated T315I Abl kinase domain (ABL_T315I_0P) (Mus musculus, UniProt P00520, T315I).
T1 construct: The c-Abl T3151 KD (kinase domain) was purified as follows; Met-Ser-Leu (vector-derived residues) (N); made in house; host or cells: E. coli BL21(DE3) strains (Codon+RIL, or pSA0145 for the lambda phosphatase co-expression plasmid)
T1 sequence (P00520 242-493 T315I limits assumed): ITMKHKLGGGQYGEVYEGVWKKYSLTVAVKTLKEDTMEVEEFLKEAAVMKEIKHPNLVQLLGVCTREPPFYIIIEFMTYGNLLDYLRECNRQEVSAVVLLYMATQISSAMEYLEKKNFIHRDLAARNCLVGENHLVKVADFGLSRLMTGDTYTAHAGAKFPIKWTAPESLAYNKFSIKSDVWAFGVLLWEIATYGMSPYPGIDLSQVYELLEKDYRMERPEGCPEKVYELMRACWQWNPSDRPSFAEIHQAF
In words: c-Abl T315I (unphosphorylated kinase domain) pyruvate kinase/lactate dehydrogenase coupled enzyme assay. The class given is biochemical. The settings on record: 10 μM ATP.

In another assay the target is T2, ABL T315I BAF3 cells (Homo sapiens, UniProt P00519, T315I, cells depend on it).
T2 construct: ABL T315I BAF3; fused on or other part: P11274 (Breakpoint cluster region protein)
In words: 96-well XTT cell survival assay, BaF3 ABL T315I. It is filed as cell-based. The settings on record: 72 hours, read-out: CELL BIO ABL T315I BAF3 XTT (IC50). The procedure, abridged:
(§1)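 Ba/F3 cells in RPMI 1640 with 10% FBS (IL-3 medium for maintenance) were seeded at 5000-8000 cells/well and exposed to compound dilutions in duplicate for 72 h at 37° C. Viability read by XTT/PMS, absorbance 405 nm minus 650 nm after 2-6 h.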
(In general: Tetrazolium dyes change colour on reduction, which living cells bring about.)

The target in a further assay is T3, ABL P210WT BAF3 cells (Homo sapiens, UniProt P00519).
T3 construct: ABL P210WT BAF3; fused on or other part: P11274 (Breakpoint cluster region protein)
The assay is described as follows: 96-well XTT cell survival assay, BaF3 ABL P210WT. The settings on record: ABL P210 WT, 72 hours, read-out: CELL BIO ABL P210WT BAF3 XTT (IC50). It is filed as cell-based. The gist of the method:
as §1

`OC(c1cncc(-c2cnc3[nH]cc(-c4ccccc4F)c3c2Cl)c1)c1ncccc1F` (stereo not drawn): the “ABL_T315I_0P (IC50)” value in assay [1] is given as “D (<0.01 μM)”. Moreover, the GI50 at ABL T315I BAF3 cells and at ABL P210WT BAF3 cells was 100 to 1000 nM in each case.
As for `Cc1noc(C)c1-c1c[nH]c2ncc(-c3cncc(C(=O)N(C)C)c3)c(Cl)c12` [5-[4-Chloro-3-(3,5-dimethyl-isoxazol-4-yl)-1H-pyrrolo[2,3-b]pyridin-5-yl]-N,N-dimethyl-nicotinamide], the “ABL_T315I_0P (IC50)” value in assay [1] is given as “B (1.0-0.1 μM)”. The GI50 on ABL T315I BAF3 cells and at ABL P210WT BAF3 cells was > 1000 nM each time.
`Nc1ncc(-c2cnc3[nH]cc(-c4cccc(F)c4)c3c2Cl)cc1C(=O)N1CCOCC1` [{2-Amino-5-[4-chloro-3-(3-fluoro-phenyl)-1H-pyrrolo[2,3-b]pyridin-5-yl]-pyridin-3-yl}-morpholin-4-yl-methanone]: the “ABL_T315I_0P (IC50)” value in assay [1] is “D (<0.01 μM)”. Besides, the GI50 at ABL T315I BAF3 cells and at ABL P210WT BAF3 cells was 10 to 100 nM each time.
Turning to `CN(C)C(=O)C(O)c1cncc(-c2cnc3[nH]cc(-c4ccc(F)cc4)c3c2Cl)c1` (stereo not drawn) [2-{5-[4-Chloro-3-(4-fluoro-phenyl)-1H-pyrrolo[2,3-b]pyridin-5-yl]-pyridin-3-yl}-2-hydroxy-N,N-dimethyl-acetamide], the “ABL_T315I_0P (IC50)” value in assay [1] was “C (0.1-0.01 μM)”. For the same compound, the GI50 at ABL T315I BAF3 cells was > 1000 nM; on ABL P210WT BAF3 cells, 100 to 1000 nM.
As to `COc1ccc(F)cc1-c1c[nH]c2ncc(-c3cncc(C(=O)N(C)C)n3)c(Cl)c12` [6-[4-Chloro-3-(5-fluoro-2-methoxy-phenyl)-1H-pyrrolo[2,3-b]pyridin-5-yl]-pyrazine-2-carboxylic acid dimethylamide], the “ABL_T315I_0P (IC50)” value in assay [1] is reported as “D (<0.01 μM)”. Moreover, the GI50 on ABL T315I BAF3 cells and at ABL P210WT BAF3 cells was 10 to 100 nM throughout.
In the case of `COc1ccccc1-c1c[nH]c2ncc(-c3ccc(N)c(C(=O)N(C)C)c3)c(Cl)c12` [2-Amino-5-[4-chloro-3-(2-methoxy-phenyl)-1H-pyrrolo[2,3-b]pyridin-5-yl]-N,N-dimethyl-benzamide], in assay [1], the “ABL_T315I_0P (IC50)” value is listed as “D (<0.01 μM)”. Further, the GI50 on ABL T315I BAF3 cells and at ABL P210WT BAF3 cells was < 10 nM throughout.
On to `CN(C)C(=O)C(=O)c1cncc(-c2cnc3[nH]cc(-c4cccc(F)c4F)c3c2Cl)c1` [2-{5-[4-Chloro-3-(2,3-difluoro-phenyl)-1H-pyrrolo[2,3-b]pyridin-5-yl]-pyridin-3-yl}-N,N-dimethyl-2-oxo-acetamide], for which the “ABL_T315I_0P (IC50)” value in assay [1] is listed as “C (0.1-0.01 μM)”. Besides, the GI50 at ABL T315I BAF3 cells and on ABL P210WT BAF3 cells was > 1000 nM throughout.
Regarding `CNC(=O)c1cncc(-c2cnc3[nH]cc(-c4ccccc4F)c3c2Cl)c1` [5-[4-Chloro-3-(2-fluoro-phenyl)-1H-pyrrolo[2,3-b]pyridin-5-yl]-N-methyl-nicotinamide], the “ABL_T315I_0P (IC50)” value in assay [1] was “C (0.1-0.01 μM)”. Besides, the GI50 at ABL T315I BAF3 cells and on ABL P210WT BAF3 cells was > 1000 nM throughout.
For `Cn1nccc1C(O)c1cncc(-c2cnc3[nH]cc(-c4ccccc4F)c3c2Cl)c1` (stereo not drawn) [{5-[4-Chloro-3-(2-fluoro-phenyl)-1H-pyrrolo[2,3-b]pyridin-5-yl]-pyridin-3-yl}-(2-methyl-2H-pyrazol-3-yl)-methanol], the “ABL_T315I_0P (IC50)” value in assay [1] is listed as “D (<0.01 μM)”. Moreover, the GI50 on ABL T315I BAF3 cells and at ABL P210WT BAF3 cells was > 1000 nM in each case.

For the origin of these results see patent publication US8158647B2, “Substituted pyrrolopyridines and pyrazolopyridines as kinase modulators” (SGX Pharmaceuticals, Inc., priority 2007, dated 2012).
